Assay results published in US20180117042A1, “METHODS FOR TREATING RESPIRATORY SYNCYTIAL VIRUS INFECTION” (ALIOS BIOPHARMA, INC., priority 2016, published 2018).
Values belong to the molecule of their own block, whether it stands above or below them.

What was measured:
[1] = half-life of the triphosphate compound (B); conditions: triphosphate formed inside the cell
RSV = conditions: infants and young children with severe RSV LRTI; cited from earlier work
[2] = SAD/MAD study in pediatric patients hospitalized with RSV infection: safety; assay type: in vivo, human; conditions: infants hospitalized with RSV, interim blinded results
Description: One hundred fifty eight otherwise healthy pediatric patients hospitalized with RSV infection were recruited in a randomized, double-blind, placebo-controlled, SAD (single ascending dose) and MAD (multiple ascending dose) study. The patients were randomized into nine SAD, MAD regimens. Subjects not given the placebo were administered lumicitabine or compound (A), a prodrug of the nucleoside analog AL-8112 (otherwise referenced herein as compound (C), the triphosphate of which is a potent inhibitor of the RSV polymerase. The cohort size and dose for the first SAD cohort was prespecified. The makeup of all other cohorts was determined by an Independent Data Monitoring Committee (IDMC) that regularly reviewed data. FIG. 2 provides the single and multiple doses used in the study as well as approximate numbers of subjects dosed. Safety and PK data were collected for 7 (SAD) and 28 (MAD) days post randomization. PK was analyzed using non-linear mixed effect modeling. Part 1 (single ascending dose): Patients received a single dose of 1 of 4 ascending doses of compound (A), (1.37 mg/kg, 4.1 mg/kg, 12 mg/kg and 25 mg/kg) or placebo. Patients received compound (A) for a 7-day consecutive period. Part 2 (multiple ascending dosage): Patients received a loading dosage followed by nine maintenance dosages, or placebo. Patients received compound (A) for a 5-day consecutive period. […]

[3] = tested on: RSV-A Memphis 37b challenge virus; assay: human RSV challenge model in healthy adults, viral load in nasal washes; assay type: in vivo
Description: Healthy adults received one of the following dosing regimens or placebo over 5 days using the human RSV challenge model.
Patients were given an intranasal inoculation of RSV-A Memphis 37b challenge virus. Administration of compound (A), or a pharmaceutically acceptable salt thereof, began approximately 12 hours after confirmation of RSV infection as determined by the presence of RSV RNA in nasopharyngeal washes. The test compound was administered as an oral-liquid suspension, wherein the drug vehicle was methyl cellulose and sterile water. The placebo was the drug vehicle without the test compound. Second dosages were started 12 hours after administration of the first dosage, and the remaining second dosages were provided in approximate 12 hour intervals. Nasal washes were collected twice daily approximately 36 to 48 hours after RSV inoculation until Day 12. Viral load was detected and quantified from the aliquots of the nasal wash samples using tissue infectivity plaque assays and PCR. (See DeVincenzo, J. P., et al., Am. J. Respir. Crit. Care. Med. (2010) 182(10):1305-1314) Patients returned for two follow-up visits on Day 16 (±2 days) and Day 28 (±2 days) post-challenge inoculation.

[4] = SAD/MAD study in pediatric patients hospitalized with RSV infection: plasma PK with PK modeling; assay type: in vivo, human
Description: One hundred fifty eight otherwise healthy pediatric patients hospitalized with RSV infection were recruited in a randomized, double-blind, placebo-controlled, SAD (single ascending dose) and MAD (multiple ascending dose) study. The patients were randomized into nine SAD, MAD regimens. Subjects not given the placebo were administered lumicitabine or compound (A), a prodrug of the nucleoside analog AL-8112 (otherwise referenced herein as compound (C), the triphosphate of which is a potent inhibitor of the RSV polymerase. The cohort size and dose for the first SAD cohort was prespecified. The makeup of all other cohorts was determined by an Independent Data Monitoring Committee (IDMC) that regularly reviewed data. FIG. 2 provides the single and multiple doses used in the study as well as approximate numbers of subjects dosed. Safety and PK data were collected for 7 (SAD) and 28 (MAD) days post randomization. PK was analyzed using non-linear mixed effect modeling.
Part 1 (single ascending dose): Patients received a single dose of 1 of 4 ascending doses of compound (A), (1.37 mg/kg, 4.1 mg/kg, 12 mg/kg and 25 mg/kg) or placebo. Patients received compound (A) for a 7-day consecutive period.
Part 2 (multiple ascending dosage): Patients received a loading dosage followed by nine maintenance dosages, or placebo. Patients received compound (A) for a 5-day consecutive period. The maintenance dosages were administered twice daily. In the twice daily dosage regimen, the first maintenance dosage was given 8-18 hours after the loading dosage (dosage 1).
A PK model was developed integrating adult and pediatric data to aid calculation of PK parameters and project efficacious doses. For pediatric dose and exposure projections three age cohorts were used: 1-<2 months, 2-<6 month and 6-<12 months. Apparent clearance increased with dose, creatinine clearance and body weight (using allometric principles). Maturation functions were applied for age dependent changes in Carboxylesterase 1 abundance on bioavailability and kidney function on renal elimination. […]

half-life [1]: ~17.6 h
Structure (SMILES): Nc1ccn([C@@H]2O[C@](CCl)(COP(=O)(O)OP(=O)(O)OP(=O)(O)O)[C@@H](O)[C@H]2F)c(=O)n1 [Compound (B)]

Structure (SMILES): NC(=O)c1ncn([C@@H]2O[C@H](CO)[C@@H](O)[C@H]2O)n1 [aerosolized ribavirin, ribavirin]
clinical benefit of treatment (RSV): failed to impart any clinically significant benefits

treatment discontinuation during the study ([3]; healthy adults, 5 days dosing): no patient discontinued treatment
Structure (SMILES): CC(C)C(=O)OC[C@@]1(CCl)O[C@@H](n2ccc(N)nc2=O)[C@H](F)[C@@H]1OC(=O)C(C)C [compound (A), Lumicitabine]
tolerability ([2]; multiple doses up to 60/40 mg/kg): well tolerated | tolerability ([2]; single doses up to 25 mg/kg): well tolerated | RSV viral load compared to the placebo ([3]; all regimens (750/150 mg, 750/500 mg, 375 mg), oral, 5 days, FIG. 1): marked reduction | RSV RNA ([3]; at Day 12, all treated patients): undetectable | RSV RNA ([3]; at Day 16 follow-up): undetectable | RSV RNA ([3]; at Day 28 follow-up): undetectable | laboratory abnormalities ([3]; healthy adults, 5 days dosing): no clinically significant laboratory abnormalities | reduction of plaque forming units equivalents (PFUe/mL) ([3]; patients who received 750 mg on Day 1, within the first 24 hours): multi-log reduction

AUC(0-t) ([4]; human, plasma, doses of 40/20 mg/kg and 60/40 mg/kg compound (A), actual concentrations with PK modeling (FIG. 3), read-out: plasma AUC0-24): 8000 to 20000 ng·h/mL | accumulation ([4]; multiple dosing): no accumulation | plasma exposures with increasing ALS-8176 doses (dose proportionality) ([4]; oral): less than dose proportional
Structure (SMILES): Nc1ccn([C@@H]2O[C@@](CO)(CCl)[C@@H](O)[C@H]2F)c(=O)n1 [compound (C)]
